Data taken from patent US4280993A, “Process for determining the concentration of benzodiazepines in a body fluid” (priority 1978, dated 1981).

Legend:
[1] = test system: dopamine receptor sites in mamalian brain; settings: cited from earlier work
[2] = test system: receptor powder (ox brain tissue), ^3 H-flunitrazepam binding; experiment: Displacement of 3H-flunitrazepam from freeze-dried ox brain receptor powder (lorazepam standard curve); settings: for Counts per minute: 50 μl added, bound 3H-flunitrazepam
Procedure: (a) A 25 mM solution of a sodium phosphate buffer, pH 7.0 (Solution I).
(b) A solution containing 18 ng and 5 μCi of ^3 H-flunitrazepam in 10 ml of 10% ethanol in Solution I (Solution II).
(c) About 0.3 g of a receptor powder, prepared as described below, suspended in 30 ml of Solution I (Suspension III).
(d) A standard solution (IV) containing 20 ng/ml of lorazepam, and prepared by dilution with the buffer I of 0.5 ml of 93% ethanolic solution (IVa) of lorazepam, containing 1 μg/ml of lorazepam, to a volume of 25 ml.
To 15 ml test tubes, each containing 400 μl of the receptor suspension III, are added 100 μl of Solution II and 50 μl of the sample, or 50 μl of the standard solution IV. The tubes are incubated at room temperature for at least 20 minutes and maximum 2 hours. Then, 10 ml of isothermic I are added, and the mixture is immediately filtered through a Whatman GF/C glassfibre filter and washed with 10 ml of isothermic buffer solution I.
The washed filter is placed in a scintillation vial, containing 5 ml of conventional scintillation fluid, and counted shortly after for 0.5 minute, or better the next day for 5 minutes.
For the preparation of a standard curve, a series of dilutions of the lorazepam standard solution (IV) is prepared by diluting with the buffer I, and assaying is performed in duplicate with 50 μl of each of these dilutions being added to the test tubes, each of which contains 400 μl of the suspension III and 100 μl of the solution II.
The average of counts co from the controls is 3187 from which is subtracted the average of the counts from the blanks, which is 160, to give co -cblank.
The count cx from each sample also has to be reduced by the average counts from the blanks, resulting from background radiation, to give cx -cblank.
In the accompanying drawing, the test results are plotted as co -cblank/cx -cblank versus the concentration of lorazepam, and the standard curve, therefore, can be used for quantitative determination of the benzodiazepine contents of samples.
The receptor powder used in the process described above was ox brain tissue which had been homogenized in 3 volumes of iced 1M sucrose solution whereafter the homogenate had been freeze-dried.

SMILES	binding to dopamine receptor sites [1]	c o - cblank / c x - cblank ([2]; drug 6.25 ng/ml)	Counts per minute ([2]; drug 6.25 ng/ml) [counts per minute]	c o - cblank / c x - cblank ([2]; drug 12.5 ng/ml)	Counts per minute ([2]; drug 12.5 ng/ml) [counts per minute]	c o - cblank / c x - cblank ([2]; drug 25 ng/ml)	Counts per minute ([2]; drug 25 ng/ml) [counts per minute]	c o - cblank / c x - cblank ([2]; drug 62.5 ng/ml)	Counts per minute ([2]; drug 62.5 ng/ml) [counts per minute]	c o - cblank / c x - cblank ([2]; drug 125 ng/ml)	Counts per minute ([2]; drug 125 ng/ml) [counts per minute]	c o - cblank / c x - cblank ([2]; drug 250 ng/ml)
O=C(CCCN1CCC2(CC1)C(=O)NCN2c1ccccc1)c1ccc(F)cc1 [^3 H-spiroperidol]	bind selectively and with high affinity	–	–	–	–	–	–	–	–	–	–	–
O=C1Nc2ccc(Cl)cc2C(c2ccccc2Cl)=NC1O (stereo not drawn) [lorazepam, 7-chloro-5-(2-chlorophenyl)-3-hydroxy-2,3-dihydro-1H-1,4-benzodiazepin-2-one]	–	1.41	2313	1.73	1910	2.30	1477	3.86	944	6.87	601	12.51
